The text below walks through data of PubChem BioAssay (NCI).

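Assay format: 96-well plates, 48-hour exposure. TGI: concentration producing complete growth inhibition.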

The first assay relates to EKVX NSCLC. The experiment in a line: DTP human tumour cell line panel, 48 h.
Turning to `O=C(N/C(=C\c1ccc(/C=C(\NC(=O)c2ccccc2)c2nc3cc([N+](=O)[O-])ccc3[nH]2)cc1)c1nc2cc([N+](=O)[O-])ccc2[nH]1)c1ccccc1`, the total growth inhibition concentration (TGI) is over 100 µM.
On the same count and under the same terms, in the case of `COC(CN1C(=O)c2cccc3cccc(c23)C1=O)OC` it was over 100 µM; in that of `CCCCCCCCCCCCCCCCCC(CCCCCCCCCCCCCCCCC)OP(=O)(O)O`, over 100 µM; in that of `COC1(OC)CCC2C1C1CCC(OC)(OC)C21` (stereo not given), over 50 µM.
`CN1C(=O)C(C)(C)C2(SC(C)(C)C2(C)C)N(C)C1=S` (stereo not given) returned a TGI of over 100 µM.
Regarding `COc1cc2c(cc1OC)-c1c3cc(O)ccc3nn[n+]1CC2`, the TGI was over 100 µM.
In the case of `C/C(CC(=O)CCC(=O)Nc1cccc(C(F)(F)F)c1)=N\NC(=O)NN`, the TGI was over 100 µM.
The molecule `N#CCCN(CCC#N)c1ccc(/C=C2\N=C(c3cc([N+](=O)[O-])ccc3Cl)OC2=O)cc1` returned a concentration for total growth inhibition (TGI) of over 100 µM.
`O=C(/C=C/c1ccccc1)NC1C=Nc2ccc(Cl)cc2NC1=O` (stereo not given) returned a TGI of over 100 µM.
On the same count and under the same terms, as for `COc1ccccc1C12OC(=O)C1(C)Oc1ccccc1C2=O` (stereo not given), the figure is over 100 µM; as for `O=C1C2C(C(=O)N1OS(=O)(=O)c1ccccc1)N(Cc1ccccc1)C(=O)N2Cc1ccccc1` (stereo not given), over 100 µM.
Still for that read-out and setting: as for `O=C(COc1ccc(Br)cc1Br)N1N=C(c2ccc([N+](=O)[O-])o2)CC1(O)c1ccccc1` (stereo not given), the figure is 9.59 µM; as for `N#CC(c1ccc(Cl)cc1)c1cccc(C(C#N)c2ccc(Cl)cc2)n1` (stereo not given), over 100 µM.
The molecule `O=C1C(=O)N(c2ccc(Cl)cc2Cl)C(=O)C(=O)C1c1nc2ccccc2s1` had a TGI of over 100 µM.
Same read-out and setting: in the case of `Clc1cc2nsnc2c(Cl)n1` it was over 100 µM; in that of `N#CC1C(C#N)C2(c3ccccc3)C(c3ccccc3)=NN(c3ccccc3)CC12` (stereo not given), over 100 µM; in that of `Cc1nc2ccccc2c(=O)n1-c1ccccc1I`, over 100 µM.
Regarding `COC1CCC2C(NS(=O)(=O)c3ccc(C)cc3)CCCC2O1` (stereo not given) (tested in a mixture with another compound), the concentration for total growth inhibition (TGI) was over 34.5 µM.
`Cc1cc(C)nc(NS(=O)(=O)c2ccc(NC(=O)c3ccc(Cl)c4c(Nc5ccc(S(=O)(=O)Nc6nc(C)cc(C)n6)cc5)c5ccccc5nc34)cc2)n1` returned a total growth inhibition concentration (TGI) of 88.8 µM.
`CC1=C(C(=O)NCc2ccccc2)C(/C=C/c2ccccc2)C(C(=O)NCc2ccccc2)=C(C)N1` displayed a TGI of over 100 µM.
In the case of `O=S1(=O)c2ccccc2NC(c2ccc3ccccc3c2)CC1c1ccccc1F` (stereo not given), the total growth inhibition concentration (TGI) was over 100 µM.

In the next assay the test system is M14 melanoma. The experiment in a line: DTP human tumour cell line panel, 48 h.
`O=C(O)c1ccccc1[Se][Se]c1ccccc1C(=O)O` showed a TGI of over 100 µM.
Consider `CC(C)=CC(=O)C1c2cccc(O)c2C(=O)c2c(O)cc(C)cc21` (stereo not given), for which the TGI is 10.1 µM.
With `O=C(O)CCc1coc2ccc(O)cc12`, the TGI was over 100 µM.
On to `COC(=O)CC1CCN(C#N)CC1CC[N+](=O)[O-]` (stereo not given), for which the TGI was over 100 µM.
Regarding `Cc1ccc(N=Nc2ccc(N(CCC#N)CCC#N)cc2C)c(Br)c1`, the TGI was 92.3 µM.
`CC(C)C/C(CC(=O)CCC(=O)Nc1ccccc1[N+](=O)[O-])=N\NC(=O)c1cc2ccccc2cc1O` displayed a TGI of over 100 µM.
In the case of `CCOc1ccc(NC(=O)C(=O)CC(=O)c2c[n+](=O)c3cc(C)c(C)cc3n2[O-])cc1`, the TGI is over 100 µM.
The molecule `O=CC[C@H]1C(=O)C[C@@H]2CCC[C@@H]21` displayed a TGI of over 100 µM.
For the molecule `O=C(N/C(=C\c1ccc(/C=C(\NC(=O)c2ccccc2)c2nc3cc([N+](=O)[O-])ccc3[nH]2)cc1)c1nc2cc([N+](=O)[O-])ccc2[nH]1)c1ccccc1`, the TGI was over 100 µM.
`COC(CN1C(=O)c2cccc3cccc(c23)C1=O)OC`: the TGI is over 100 µM.
Molecule `CCCCCCCCCCCCCCCCCC(CCCCCCCCCCCCCCCCC)OP(=O)(O)O` yielded a TGI of over 100 µM.
With `COC1(OC)CCC2C1C1CCC(OC)(OC)C21` (stereo not given), the TGI is over 50 µM.
`CN1C(=O)C(C)(C)C2(SC(C)(C)C2(C)C)N(C)C1=S` (stereo not given) returned a TGI of over 100 µM.
In the case of `COc1cc2c(cc1OC)-c1c3cc(O)ccc3nn[n+]1CC2`, the concentration for total growth inhibition (TGI) is over 100 µM.
For `C/C(CC(=O)CCC(=O)Nc1cccc(C(F)(F)F)c1)=N\NC(=O)NN`, the TGI is over 100 µM.
`N#CCCN(CCC#N)c1ccc(/C=C2\N=C(c3cc([N+](=O)[O-])ccc3Cl)OC2=O)cc1` gave a concentration for total growth inhibition (TGI) of over 100 µM.
Same read-out and setting: as for `O=C(/C=C/c1ccccc1)NC1C=Nc2ccc(Cl)cc2NC1=O` (stereo not given), the figure is 65.6 µM.
With `COc1ccccc1C12OC(=O)C1(C)Oc1ccccc1C2=O` (stereo not given), the TGI is over 100 µM.
On the same count and under the same terms, as for `O=C1C2C(C(=O)N1OS(=O)(=O)c1ccccc1)N(Cc1ccccc1)C(=O)N2Cc1ccccc1` (stereo not given), the figure is over 100 µM; as for `O=C(COc1ccc(Br)cc1Br)N1N=C(c2ccc([N+](=O)[O-])o2)CC1(O)c1ccccc1` (stereo not given), 21.9 µM; as for `N#CC(c1ccc(Cl)cc1)c1cccc(C(C#N)c2ccc(Cl)cc2)n1` (stereo not given), over 100 µM.
For `O=C1C(=O)N(c2ccc(Cl)cc2Cl)C(=O)C(=O)C1c1nc2ccccc2s1`, the total growth inhibition concentration (TGI) was over 100 µM.
On the same count and under the same terms, as for `Clc1cc2nsnc2c(Cl)n1`, the figure is 29 µM.
Consider `N#CC1C(C#N)C2(c3ccccc3)C(c3ccccc3)=NN(c3ccccc3)CC12` (stereo not given), for which the TGI was over 100 µM.
The same measure, in the same setting: in the case of `Cc1nc2ccccc2c(=O)n1-c1ccccc1I` it was over 100 µM; in that of `O=C1/C(=C/c2ccccc2)CN(C(=O)C(Cl)(Cl)Cl)C/C1=C\c1ccccc1`, 2.62 µM; in that of `COC1CCC2C(NS(=O)(=O)c3ccc(C)cc3)CCCC2O1` (stereo not given) (tested in a mixture with another compound), over 34.5 µM.
`CN(C)C(=N)c1ccccc1` gave a TGI of over 100 µM.
Take `Cc1cc(C)nc(NS(=O)(=O)c2ccc(NC(=O)c3ccc(Cl)c4c(Nc5ccc(S(=O)(=O)Nc6nc(C)cc(C)n6)cc5)c5ccccc5nc34)cc2)n1`: the concentration for total growth inhibition (TGI) was 6.95 µM.
Same read-out and setting: as for `CC1=C(C(=O)NCc2ccccc2)C(/C=C/c2ccccc2)C(C(=O)NCc2ccccc2)=C(C)N1`, the figure is over 100 µM; as for `O=S1(=O)c2ccccc2NC(c2ccc3ccccc3c2)CC1c1ccccc1F` (stereo not given), over 100 µM.

The next assay deals with MOLT-4 leukemia. As to the kind of experiment: DTP human tumour cell line panel, 48 h.
Turning to `O=C(O)c1ccccc1[Se][Se]c1ccccc1C(=O)O`, the TGI is over 100 µM.
Same read-out and setting: in the case of `CC(C)=CC(=O)C1c2cccc(O)c2C(=O)c2c(O)cc(C)cc21` (stereo not given) it was 20.7 µM; in that of `O=C(O)CCc1coc2ccc(O)cc12`, over 100 µM; in that of `COC(=O)CC1CCN(C#N)CC1CC[N+](=O)[O-]` (stereo not given), over 100 µM.
`Cc1ccc(N=Nc2ccc(N(CCC#N)CCC#N)cc2C)c(Br)c1` yielded a TGI of 45.1 µM.
On to `CC(C)C/C(CC(=O)CCC(=O)Nc1ccccc1[N+](=O)[O-])=N\NC(=O)c1cc2ccccc2cc1O`, for which the TGI was over 100 µM.
As to `CCOc1ccc(NC(=O)C(=O)CC(=O)c2c[n+](=O)c3cc(C)c(C)cc3n2[O-])cc1`, the TGI is over 100 µM.
Same read-out and setting: as for `O=CC[C@H]1C(=O)C[C@@H]2CCC[C@@H]21`, the figure is over 100 µM; as for `O=C(N/C(=C\c1ccc(/C=C(\NC(=O)c2ccccc2)c2nc3cc([N+](=O)[O-])ccc3[nH]2)cc1)c1nc2cc([N+](=O)[O-])ccc2[nH]1)c1ccccc1`, over 100 µM; as for `COC(CN1C(=O)c2cccc3cccc(c23)C1=O)OC`, over 100 µM.
Molecule `CCCCCCCCCCCCCCCCCC(CCCCCCCCCCCCCCCCC)OP(=O)(O)O` came in with a TGI of over 100 µM.
Still for that read-out and setting: in the case of `COC1(OC)CCC2C1C1CCC(OC)(OC)C21` (stereo not given) it was over 50 µM.
The same measure, in the same setting: in the case of `CN1C(=O)C(C)(C)C2(SC(C)(C)C2(C)C)N(C)C1=S` (stereo not given) it was over 100 µM.
